Experimental data from ChEMBL document CHEMBL5233245, “Monocarboxylate transporter 1 and 4 inhibitors as potential therapeutics for treating solid tumours: A review with structure-activity relationship insights” (Eur J Med Chem, 2020).

Columns and labels:
[1] = molecular target: T1, Monocarboxylate transporter 1 (Homo sapiens, UniProt P53985); assay: Inhibition of MCT1 (unknown origin) assessed as reduction in [14C]lactate uptake incubated for 20 mins by liquid scintillation counting analysis
T1 sequence (P53985 whole entry): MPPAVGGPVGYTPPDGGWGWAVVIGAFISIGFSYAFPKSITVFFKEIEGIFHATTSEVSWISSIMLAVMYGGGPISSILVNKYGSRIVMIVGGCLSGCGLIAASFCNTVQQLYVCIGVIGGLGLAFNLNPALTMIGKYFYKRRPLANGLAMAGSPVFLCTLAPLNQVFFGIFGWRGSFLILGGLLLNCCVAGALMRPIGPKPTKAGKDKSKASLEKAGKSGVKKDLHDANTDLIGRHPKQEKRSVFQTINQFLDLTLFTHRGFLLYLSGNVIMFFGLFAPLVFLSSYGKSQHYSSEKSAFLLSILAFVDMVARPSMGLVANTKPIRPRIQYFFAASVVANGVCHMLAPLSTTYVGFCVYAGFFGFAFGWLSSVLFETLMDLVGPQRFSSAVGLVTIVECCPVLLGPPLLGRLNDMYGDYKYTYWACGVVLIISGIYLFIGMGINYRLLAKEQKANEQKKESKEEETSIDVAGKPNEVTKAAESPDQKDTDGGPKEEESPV

[2] = molecular target: T2, Monocarboxylate transporter 1 (Rattus norvegicus, UniProt P53987); assay: Inhibition of MCT1 in rat Brain-like endothelial cells incubated for 15 mins in presence of [14C]lactic acid by scintillation counter assay; type: cell-based
T2 sequence (P53987 whole entry): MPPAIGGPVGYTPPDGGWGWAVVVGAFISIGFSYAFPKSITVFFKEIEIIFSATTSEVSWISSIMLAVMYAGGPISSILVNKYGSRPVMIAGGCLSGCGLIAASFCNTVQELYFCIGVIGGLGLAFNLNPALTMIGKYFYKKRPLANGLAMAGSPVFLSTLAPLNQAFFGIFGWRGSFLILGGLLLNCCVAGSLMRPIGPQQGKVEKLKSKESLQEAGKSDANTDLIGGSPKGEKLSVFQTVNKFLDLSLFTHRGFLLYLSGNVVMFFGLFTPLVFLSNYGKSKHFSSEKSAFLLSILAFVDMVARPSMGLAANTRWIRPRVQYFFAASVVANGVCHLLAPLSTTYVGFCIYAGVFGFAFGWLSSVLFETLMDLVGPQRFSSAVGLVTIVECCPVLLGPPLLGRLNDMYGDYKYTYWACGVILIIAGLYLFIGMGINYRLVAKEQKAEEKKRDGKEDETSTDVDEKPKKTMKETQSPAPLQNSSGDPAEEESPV

[3] = molecular target: T3, Monocarboxylate transporter 2 (Rattus norvegicus, UniProt Q63344); assay: Binding affinity to MCT2 in rat Erythrocyte assessed as inhibition constant; type: cell-based
T3 sequence (Q63344 whole entry): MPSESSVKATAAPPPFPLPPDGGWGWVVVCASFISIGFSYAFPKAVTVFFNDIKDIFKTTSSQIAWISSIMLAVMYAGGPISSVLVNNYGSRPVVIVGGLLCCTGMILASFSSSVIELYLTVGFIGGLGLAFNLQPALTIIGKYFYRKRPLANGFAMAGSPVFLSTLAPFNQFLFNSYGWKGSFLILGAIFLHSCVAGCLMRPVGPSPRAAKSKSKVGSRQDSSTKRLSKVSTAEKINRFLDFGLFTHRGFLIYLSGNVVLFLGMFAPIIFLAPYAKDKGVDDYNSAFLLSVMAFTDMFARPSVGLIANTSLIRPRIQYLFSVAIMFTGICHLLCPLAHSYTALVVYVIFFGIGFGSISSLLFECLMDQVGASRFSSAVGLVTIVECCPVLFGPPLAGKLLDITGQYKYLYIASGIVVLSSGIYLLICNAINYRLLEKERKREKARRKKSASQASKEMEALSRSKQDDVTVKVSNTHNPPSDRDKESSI

[4] = molecular target: T2, Monocarboxylate transporter 1; assay: Binding affinity to MCT1 in rat Erythrocyte assessed as inhibition constant; type: cell-based
Raji [5] = assay: Cytotoxicity against human Raji cells assessed as inhibition of cell growth by MTT assay; type: functional, cell-based
[6] = molecular target: T2, Monocarboxylate transporter 1; assay: Inhibition of MCT1 in rat Brain-like endothelial cells incubated for 15 mins in presence of [14C]lactate by […]; type: cell-based
MDA-MB-231 = assay: Cytotoxicity against human MDA-MB-231 cells assessed as inhibition of cell growth; type: functional, cell-based
Mus musculus = assay: Antitumor activity against human WiDr cells xenografted in CD-1 mouse assessed as reduction in tumor growth at 25 mg/kg,ip qd measured after 16 days; type: functional; set-up: scale not given: the % may be the effect or the level left; conditions: time 16 day
Raji [7] = assay: Antiproliferative activity against human Raji cells assessed as inhibition of cell growth by MTT assay; type: functional, cell-based
[8] = molecular target: T1, Monocarboxylate transporter 1; assay: Binding affinity to MCT1 (unknown origin) assessed as inhibition constant
[9] = molecular target: T4, Monocarboxylate transporter 4 (Homo sapiens, UniProt O15427); assay: Binding affinity to human MCT4 expressed in Xenopus laevis oocytes assessed as inhibition constant in presence of [14C]lactate by fluorescence assay
T4 sequence (O15427 whole entry): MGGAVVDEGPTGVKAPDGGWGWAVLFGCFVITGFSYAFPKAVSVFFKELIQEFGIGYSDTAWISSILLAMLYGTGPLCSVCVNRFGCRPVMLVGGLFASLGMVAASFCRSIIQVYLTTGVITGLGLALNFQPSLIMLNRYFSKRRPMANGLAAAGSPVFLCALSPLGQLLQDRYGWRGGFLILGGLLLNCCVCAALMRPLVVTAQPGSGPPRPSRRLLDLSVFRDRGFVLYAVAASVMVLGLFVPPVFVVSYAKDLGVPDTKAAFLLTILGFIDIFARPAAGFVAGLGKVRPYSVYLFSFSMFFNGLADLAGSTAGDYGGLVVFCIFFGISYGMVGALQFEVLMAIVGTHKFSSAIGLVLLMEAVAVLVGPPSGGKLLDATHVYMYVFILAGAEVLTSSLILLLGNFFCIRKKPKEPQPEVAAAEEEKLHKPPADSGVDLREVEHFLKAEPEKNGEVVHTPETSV

[10] = molecular target: T1, Monocarboxylate transporter 1; assay: Inhibition of MCT1 (unknown origin)
[11] = molecular target: T4, Monocarboxylate transporter 4; assay: Inhibition of MCT4 (unknown origin)

## COc1cc(N(CC(C)C)CC(C)C)ccc1/C=C(\C#N)C(=O)O
[1]
  IC50: 11 nM

## CCCCCN(CCCCC)c1ccc(/C=C(\C#N)C(=O)O)c(OC)c1
[1]
  IC50: 34 nM

## COc1cc(N2CCCC2)ccc1/C=C(\C#N)C(=O)O
[1]
  IC50: 48 nM

## COc1cc(N2CCCCC2)ccc1/C=C(\C#N)C(=O)O
[1]
  IC50: 25 nM

## COc1cc(N(Cc2ccccc2)Cc2ccccc2)ccc1/C=C(\C#N)C(=O)O
[1]
  IC50: 37 nM

## N#C/C(=C\c1cn(-c2ccccc2)c2ccccc12)C(=O)O
[2]
  IC50: 12.8 nM

## N#C/C(=C\c1cn(Cc2ccccc2)c2ccccc12)C(=O)O
[2]
  IC50: 65.9 nM

## Cc1n[nH]c(C)c1Cc1sc2c(c1C(=O)N1C[C@@H](O)CO1)c(=O)n(C)c(=O)n2CC(C)C
[3]
  Ki: < 10 nM
[4]
  Ki: 2 nM

## CC(C)c1cc(=O)c2c(OCCCO)cc(OCc3ccc4ccccc4c3)cc2o1
Raji [5]
  EC50: 100 nM

## N#C/C(=C\c1ccc(OCCBr)cc1)C(=O)O
[6]
  IC50: > 5000 nM

## Cc1cc(=O)c2c(OCCCO)cc(OCc3ccc4ccccc4c3)cc2o1
Raji [5]
  EC50: 1000 nM

## COC(=O)[C@@](O)(CO)COC(=O)c1nn(-c2ccc(N(Cc3ccccc3)Cc3ccccc3)cc2)c2ccccc12
MDA-MB-231
  IC50: 2330 nM

## CC(C)(C)[Si](OCCOc1ccc(/C=C(\C#N)C(=O)O)cc1)(c1ccccc1)c1ccccc1
Mus musculus
  Activity: 28%

## N#C/C(=C\c1ccc(OCCO)cc1)C(=O)O
[6]
  IC50: > 5000 nM

## CC(C)c1cc(=O)c2c(OCc3ccccc3CO)cc(OCc3ccc4ccccc4c3)cc2o1
Raji [5]
  EC50: > 100000 nM

## N#C/C(=C\c1cn(-c2ccccn2)c2ccccc12)C(=O)O
[2]
  IC50: > 1000 nM

## CC(C)Cn1c(=O)n(C)c(=O)c2nc(CCCCCO)c(COc3ccc4ccccc4c3)nc21
Raji [7]
  EC50: < 50 nM

## CC(C)(C)[Si](Oc1ccc(/C=C(\C#N)C(=O)O)cc1)(c1ccccc1)c1ccccc1
Mus musculus
  Activity: 28%

## COC(=O)[C@@](O)(CO)COC(=O)c1nn(-c2ccc(N(Cc3ccc(F)cc3)Cc3ccc(F)cc3)cc2)c2ccccc12
MDA-MB-231
  IC50: 3020 nM

## Cc1[nH]nc(C(F)(F)F)c1Cc1sc2c(c1C(=O)N1C[C@](C)(O)CO1)c(=O)n(C)c(=O)n2C(C)C [AZD3965]
[8]
  Ki: 2 nM

## CC(C)(OCc1nn(Cc2ccccc2)c2ccccc12)C(=O)O [BINDARIT]
[9]
  Ki: 30200 nM

## N#C/C(=C\c1ccc(O)cc1)C(=O)O [alpha-CYANO-4-HYDROXYCINNAMIC ACID]
[10]
  IC50: 100000 nM
[11]
  IC50: > 150000 nM
